Holding throughout (assay): biochemical
Test [1] addresses HLA-DR DRB1*01:01 (Homo sapiens, UniProt P01903+P01911, A100R/D57E/F55L/F60I/F76Y/I96L/L162R/M171V/P40L/Q125E/R42F/V115G/Y59C). Format: binding.
The target of test [2] is HLA-DR DRB1*04:01 (Homo sapiens, UniProt P01903+P01911, A100K/A169T/F76Y/I96L/K127E/L162R/M171V/N62H/P40V/Q125Y/R42H/S133A/S149N/S66Y/V115G/V209L/W38E). Format: binding.
Test [3] deals with HLA-DR DRB1*04:05 (Homo sapiens, UniProt P01903+P01911, A100R/A169T/D86S/F76Y/I96L/K127E/L162R/M171V/N62H/P40V/Q125Y/R42H/S133A/S149N/S66Y/V115G/V209L/W38E). Format: binding.
In test [4] the target is HLA-DR DRB1*07:01 (Homo sapiens, UniProt P01903+P01911, A100R/A102G/A103Q/D57E/D86V/E43K/F76Y/K127E/L162R/M171V/P40G/Q125H/Q99D/R33Q/R42Y/R54Q/S133A/S66F/T210M/V115G/Y107V/Y59L/Y89S). Format: binding.
The target of test [5] is HLA-DR DRB1*10:01 (Homo sapiens, UniProt P01903+P01911, A100R/A169T/D57E/F55L/F60V/F69Y/F76Y/I96L/L162R/M171V/P40V/Q260P/Q39E/Q99R/R195Q/R42F/S149N/S66Y/T210M/V115G/V67A/W38E/Y59R/Y61H). Format: binding.
Test [6] concerns the target HLA-DR DRB1*11:01 (Homo sapiens, UniProt P01903+P01911, A100R/A169T/A87E/I96F/K41T/L162R/M171V/P40S/Q125H/Q178H/Q39Y/Q99D/R42S/S66Y/T262R/V115G/W38E). Format: binding.
The target in test [7] is HLA-DR DRB1*13:02 (Homo sapiens, UniProt P01903+P01911, A100E/A169T/K41T/L162R/M171V/P40S/Q125H/Q178H/Q39Y/Q99D/R42S/S66N/T262R/V115G/W38E/Y61H). Format: binding.
Test [8] deals with HLA-DR DRB1*15:01 (Homo sapiens, UniProt P01903+P01911). Format: binding. To be noted: read-out: Binding capacity/IC50 (nM) DRB1*15:01.
For test [9], the target named is HLA-DR DRB1*16:02 (Homo sapiens, UniProt P01903+P01911, A100R/F76Y/I96L/Q99D/V115G). Format: binding.
Test [10] has as its target HLA-DR DRB3*02:02 (Homo sapiens, UniProt P01903+P79483, A212P/D57E/F66Y/L67A/R103Q/R218S/R40L/S89Y/T80R/V86D/Y55F/Y59H). Format: binding.
Test [11] addresses T1, HLA-DP DPA1*01:03/DPB1*02:01 (Homo sapiens, UniProt P04440+P20036, A65V/A84D/A85E/K98E).
T1 sequence (P20036 29-260): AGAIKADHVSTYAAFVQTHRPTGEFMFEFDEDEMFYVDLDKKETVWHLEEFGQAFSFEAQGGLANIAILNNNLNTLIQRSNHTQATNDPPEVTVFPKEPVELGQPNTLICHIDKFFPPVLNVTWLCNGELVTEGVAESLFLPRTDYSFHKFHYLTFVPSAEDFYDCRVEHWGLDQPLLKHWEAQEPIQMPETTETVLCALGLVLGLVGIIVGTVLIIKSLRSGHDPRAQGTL
T1 sequence (P04440 30-258 A65V/A84D/A85E/K98E): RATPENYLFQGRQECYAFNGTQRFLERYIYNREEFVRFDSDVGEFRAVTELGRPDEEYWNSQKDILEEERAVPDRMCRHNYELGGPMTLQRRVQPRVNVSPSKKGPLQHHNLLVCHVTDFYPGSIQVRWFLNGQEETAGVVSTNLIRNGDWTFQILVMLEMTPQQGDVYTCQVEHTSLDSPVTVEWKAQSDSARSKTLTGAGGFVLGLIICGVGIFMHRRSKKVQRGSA
Format: binding. The conditions noted are these: read-out: Binding capacity/IC50 (nM) DPA1*01:03 DPB1*02:01.

Test [12] deals with T2, HLA-DP DPA1*01:03/DPB1*04:01 (Homo sapiens, UniProt P04440+P20036).
T2 sequence (P20036 29-260): T1 sequence (P20036 29-260)
T2 sequence (P04440 30-258): T1 sequence (P04440 30-258 A65V/A84D/A85E/K98E) with V36A, D55A, E56A, E69K
Format: binding. The conditions noted are these: read-out: Binding capacity/IC50 (nM) DPA1*01:03 DPB1*04:01.

The target of test [13] is T3, HLA-DP DPA1*01:03/DPB1*20:01 (Homo sapiens, UniProt P04440+P20036, A65V/A84D/A85E/E86D/F38Y/G113D/G114E/G40L/I94L/L37V/M116V/P115A/R125K/T199I).
T3 sequence (P20036 29-260): T1 sequence (P20036 29-260)
T3 sequence (P04440 30-258 L37V/F38Y/G40L/A65V/A84D/A85E/E86D/I94L/G113D/G114E/P115A/M116V/R125K/T199I/V234M): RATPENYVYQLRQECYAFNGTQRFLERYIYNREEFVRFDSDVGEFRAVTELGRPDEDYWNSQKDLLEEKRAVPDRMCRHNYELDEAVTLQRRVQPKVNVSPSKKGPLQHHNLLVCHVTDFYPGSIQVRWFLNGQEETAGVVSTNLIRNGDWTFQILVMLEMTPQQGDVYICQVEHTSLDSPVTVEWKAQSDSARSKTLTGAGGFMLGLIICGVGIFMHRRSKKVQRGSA
Format: binding. To be noted: read-out: Binding capacity/IC50 (nM) DPA1*01:03 DPB1*20:01.

Test [14] addresses HLA-DP DPA1*02:01/DPB1*01:01 (Homo sapiens, UniProt P04440+P20036, F191V/F38Y/F64Y/G113D/G114E/K142R/L158P/L37V/M105V/M116V/M62Q/P115A/Q81R/R125K/R223Q/T114A/T199I/T259P).
Where [15] appears, read: read-out: Binding capacity/IC50 (nM) DRB1*01:01.
Where [16] appears, read: read-out: Binding capacity/IC50 (nM) DRB1*04:01.
Where [17] appears, read: read-out: Binding capacity/IC50 (nM) DRB1*04:05.
Where [18] appears, read: read-out: Binding capacity/IC50 (nM) DRB1*07:01.
Where [19] appears, read: read-out: Binding capacity/IC50 (nM) DRB1*10:01.
Where [20] appears, read: read-out: Binding capacity/IC50 (nM) DRB1*11:01.
Setting [21] is: read-out: Binding capacity/IC50 (nM) DRB1*13:02.
Setting [22] is: read-out: Binding capacity/IC50 (nM) DRB1*16:02.
The mark [23] stands for this setting: read-out: Binding capacity/IC50 (nM) DRB3*02:02.

Residue numbers refer to the chain shown, from its start. Read-outs that look alike come from different tables or passages of the source. Ends that are not written are not given here.

Here are results for 4 compounds from PMC3445454, “Broad and Cross-Clade CD4^+ T-Cell Responses Elicited by a DNA Vaccine Encoding Highly Conserved and Promiscuous HIV-1 M-Group Consensus Peptides” (PLoS ONE, 2012).

Sequence of HLA-DP DPA1*02:01/DPB1*01:01 (P20036 29-260 A42M/M62Q/Q81R/T114A/K142R/L158P/F191V/T259P, other chains not shown): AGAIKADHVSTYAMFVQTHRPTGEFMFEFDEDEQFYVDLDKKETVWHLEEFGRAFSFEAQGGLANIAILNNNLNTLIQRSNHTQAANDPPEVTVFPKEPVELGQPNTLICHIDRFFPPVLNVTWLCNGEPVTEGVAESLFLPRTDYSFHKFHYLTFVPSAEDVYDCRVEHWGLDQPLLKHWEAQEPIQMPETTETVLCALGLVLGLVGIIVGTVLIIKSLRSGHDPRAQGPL
Sequence of HLA-DR DRB1*13:02 (P01903 26-254 limits assumed, other chains not shown): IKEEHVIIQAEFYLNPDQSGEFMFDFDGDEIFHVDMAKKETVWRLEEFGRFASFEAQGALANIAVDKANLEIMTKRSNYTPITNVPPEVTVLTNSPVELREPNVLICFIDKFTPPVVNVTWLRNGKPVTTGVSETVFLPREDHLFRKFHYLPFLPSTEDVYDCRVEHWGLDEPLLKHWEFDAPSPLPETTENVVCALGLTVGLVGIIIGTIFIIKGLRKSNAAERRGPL
Sequence of HLA-DR DRB1*11:01 (P01903 26-254 limits assumed, other chains not shown): as above
Sequence of HLA-DR DRB3*02:02 (P01903 26-254 limits assumed): as the sequence (P01903 26-254 limits assumed, other chains not shown) above
Sequence of HLA-DR DRB3*02:02 (P79483 30-266 R40L/Y55F/D57E/Y59H/F66Y/L67A/T80R/V86D/S89Y/R103Q/A212P/R218S limits assumed): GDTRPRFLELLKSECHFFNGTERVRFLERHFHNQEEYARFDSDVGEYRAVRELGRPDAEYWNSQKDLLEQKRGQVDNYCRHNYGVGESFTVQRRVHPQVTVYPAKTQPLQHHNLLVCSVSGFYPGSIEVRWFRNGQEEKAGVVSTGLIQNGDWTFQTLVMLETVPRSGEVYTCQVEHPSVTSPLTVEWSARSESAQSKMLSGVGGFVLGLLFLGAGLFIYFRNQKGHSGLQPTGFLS

Regarding `CC[C@H](C)[C@H](NC(=O)[C@@H](NC(=O)[C@H](CCCCN)NC(=O)[C@@H](NC(=O)[C@@H]1CCCN1C(=O)[C@H](Cc1c[nH]c2ccccc12)NC(=O)[C@H](CCCNC(=N)N)NC(=O)CNC(=O)[C@H](C)NC(=O)[C@H](CC(C)C)NC(=O)[C@H](CCCCN)NC(=O)[C@H](CC(C)C)NC(=O)[C@@H](NC(=O)[C@H](Cc1ccccc1)NC(=O)[C@H](Cc1ccc(O)cc1)NC(=O)[C@H](C)NC(=O)[C@@H](NC(=O)[C@@H](N)CCC(=O)O)[C@@H](C)O)[C@@H](C)CC)C(C)C)C(C)C)C(N)=O` [integrase(96-113)], the IC50 in test [1] (setting [15]) was 4.3 nM; in [2] (setting [16]), 1770 nM; in [3] (setting [17]), 629 nM; in test [4] (setting [18]), 1380 nM; in [5] (setting [19]), 13 nM; in [6] (setting [20]), 27 nM. For the same compound, the IC50 is 4410 nM in test [7] (setting [21]); 284 nM in [8]; 106 nM in [9] (setting [22]); 7470 nM in test [10] (setting [23]); 697 nM in [11]; 232 nM in test [12]. Moreover, the IC50 stood at 857 nM in test [13] and 792 nM in test [14].

Regarding SEELRSLYNTVATLYCVHQ-NH2 [p17(72-90)], the IC50 in test [1] (setting [15]) stood at 20 nM; in test [2] (setting [16]), 279 nM; in [3] (setting [17]), 421 nM; in [4] (setting [18]), 661 nM; in [5] (setting [19]) it was 39 nM; in test [6] (setting [20]), 1070 nM. Moreover, the IC50 in test [7] (setting [21]) was 1050 nM; in [8], 143 nM; in [9] (setting [22]), 140 nM; in [10] (setting [23]) it was 6290 nM; in test [11], 67 nM; in test [12], 240 nM. For the same compound, the IC50 in test [13] is 2310 nM; in [14], 860 nM.

For the compound IVALIIAIVVWTIV-NH2 [vpu(13-26)], the IC50 in test [1] (setting [15]) is 261 nM; in test [2] (setting [16]) it was 19600 nM; in test [3] (setting [17]) it was 14900 nM; in test [4] (setting [18]), > 30000 nM; in test [5] (setting [19]), 1780 nM; in [6] (setting [20]), 12700 nM. Moreover, the IC50 is > 30000 nM in test [7] (setting [21]); 2030 nM in test [8]; 4360 nM in test [9] (setting [22]); > 30000 nM in [10]; 29900 nM in test [11]; > 30000 nM in [12]. The IC50 in test [13] came to 5810 nM; in test [14] it was 26100 nM.

Consider `CC[C@H](C)[C@H](NC(=O)[C@H](C)NC(=O)[C@H](CCCCN)NC(=O)[C@H](CCCCN)NC(=O)CNC(=O)[C@H](CS)NC(=O)[C@@H](NC(=O)[C@H](CCC(=O)O)NC(=O)[C@@H](NC(=O)[C@H](CC(C)C)NC(=O)[C@@H](NC(=O)[C@H](CCC(N)=O)NC(=O)[C@H](CC(=O)O)NC(=O)[C@H](Cc1ccc(O)cc1)NC(=O)[C@H](CCC(N)=O)NC(=O)[C@H](CCCNC(=N)N)NC(=O)[C@@H](NC(=O)[C@H](CCCCN)NC(=O)[C@@H](NC(=O)[C@@H](N)Cc1ccccc1)[C@@H](C)CC)C(C)C)[C@@H](C)CC)[C@@H](C)CC)[C@@H](C)CC)C(=O)NCC(=O)N[C@H](C(=O)N[C@H](C(N)=O)C(C)C)[C@@H](C)O` [protease(53-75)], for which the IC50 in test [1] came to 29 nM; in test [2], 675 nM; in test [3] it was 282 nM; in [4], 1770 nM; in [5] it was 62 nM; in test [6], 1360 nM. In addition, the IC50 in test [7] amounted to 4080 nM; in [8] it was 111 nM; in test [9], 388 nM; in [10] (setting [23]), 9690 nM; in test [11], 41 nM; in [12] it was 452 nM. Moreover, the IC50 worked out at 19 nM in [13] and 112 nM in test [14].
